Data reported in publication PMC10746543, “Design principles for cyclin K molecular glue degraders” (Nature Chemical Biology, 2023).
Several values for one entry are separate records, joined by “and”; a condition that tells them apart may be missing. Equal entries are not always repeated. Where two headings read alike, the source gives them in different places.

How the values were obtained:
[1] = tested on: cyclin K–eGFP degradation reporter; experiment: Cyclin K reporter stability analysis (dual-color cyclin K–eGFP reporter); type: cell-based, human; conditions: source data sheet correlations; read-out: DC50
Method in brief: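 Cells (HEK293T–Cas9, reporter-expressing) at 1 × 10^6 ml^−1; 5 h compound or DMSO; flow cytometry; gMFI eGFP ÷ mCherry on round mCherry-positive events; normalized to 3 DMSO controls.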

[2] = molecular target: CDK12–cyclin K (Homo sapiens, UniProt Q9NYV4); experiment: Lanthascreen kinase binding assay, CDK12; conditions: for Lanthascreen raw signal, sheet CDK12: duplicates
Sequence of CDK12–cyclin K (Q9NYV4 713-1052): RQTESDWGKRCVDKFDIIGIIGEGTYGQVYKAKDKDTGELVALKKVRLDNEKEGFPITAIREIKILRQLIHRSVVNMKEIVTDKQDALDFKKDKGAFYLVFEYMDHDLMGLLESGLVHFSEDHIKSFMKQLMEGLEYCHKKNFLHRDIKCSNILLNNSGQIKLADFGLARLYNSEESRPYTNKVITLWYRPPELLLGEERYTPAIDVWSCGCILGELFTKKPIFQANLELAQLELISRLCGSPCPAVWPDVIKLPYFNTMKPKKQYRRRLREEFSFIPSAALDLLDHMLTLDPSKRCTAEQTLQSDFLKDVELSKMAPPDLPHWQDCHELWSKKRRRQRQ
Sequence of CDK12–cyclin K (O75909 1-267 partner limits assumed): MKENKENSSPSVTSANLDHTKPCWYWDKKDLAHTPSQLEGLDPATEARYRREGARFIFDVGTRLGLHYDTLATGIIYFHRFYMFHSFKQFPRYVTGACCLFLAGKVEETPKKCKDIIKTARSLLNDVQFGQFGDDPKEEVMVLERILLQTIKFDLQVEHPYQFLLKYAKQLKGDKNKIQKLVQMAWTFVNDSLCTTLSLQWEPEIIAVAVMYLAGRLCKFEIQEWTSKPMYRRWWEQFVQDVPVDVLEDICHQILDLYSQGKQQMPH
Experimental: (§1) Lanthascreen experiments were performed using commercially available reagents (Thermo Fisher) and according to the manufacturer’s instructions.

[3] = molecular target: T1, CDK12–cyclin K and DDB1 (Homo sapiens, UniProt Q16531+Q9NYV4, K965R); experiment: TR-FRET ternary complex formation assay (compound titration); type: binding
T1 construct: His6–CDK12 (a.a. 713–1,052); full-length or beta-propeller B domain deletion (ΔBPB: a.a. 396–705 deleted) constructs of His6–DDB1ΔBPB, StrepII–Avi–DDB1, or His6–Spy–DDB1; made in house; host or cells: Trichoplusia ni High Five insect cells (baculovirus)
T1 sequence (Q9NYV4 713-1052 K965R): as the sequence (Q9NYV4 713-1052) above, with K253R counted along it
T1 sequence (O75909 1-267 partner): as the sequence (O75909 1-267 partner limits assumed) above
T1 sequence (Q16531 whole entry): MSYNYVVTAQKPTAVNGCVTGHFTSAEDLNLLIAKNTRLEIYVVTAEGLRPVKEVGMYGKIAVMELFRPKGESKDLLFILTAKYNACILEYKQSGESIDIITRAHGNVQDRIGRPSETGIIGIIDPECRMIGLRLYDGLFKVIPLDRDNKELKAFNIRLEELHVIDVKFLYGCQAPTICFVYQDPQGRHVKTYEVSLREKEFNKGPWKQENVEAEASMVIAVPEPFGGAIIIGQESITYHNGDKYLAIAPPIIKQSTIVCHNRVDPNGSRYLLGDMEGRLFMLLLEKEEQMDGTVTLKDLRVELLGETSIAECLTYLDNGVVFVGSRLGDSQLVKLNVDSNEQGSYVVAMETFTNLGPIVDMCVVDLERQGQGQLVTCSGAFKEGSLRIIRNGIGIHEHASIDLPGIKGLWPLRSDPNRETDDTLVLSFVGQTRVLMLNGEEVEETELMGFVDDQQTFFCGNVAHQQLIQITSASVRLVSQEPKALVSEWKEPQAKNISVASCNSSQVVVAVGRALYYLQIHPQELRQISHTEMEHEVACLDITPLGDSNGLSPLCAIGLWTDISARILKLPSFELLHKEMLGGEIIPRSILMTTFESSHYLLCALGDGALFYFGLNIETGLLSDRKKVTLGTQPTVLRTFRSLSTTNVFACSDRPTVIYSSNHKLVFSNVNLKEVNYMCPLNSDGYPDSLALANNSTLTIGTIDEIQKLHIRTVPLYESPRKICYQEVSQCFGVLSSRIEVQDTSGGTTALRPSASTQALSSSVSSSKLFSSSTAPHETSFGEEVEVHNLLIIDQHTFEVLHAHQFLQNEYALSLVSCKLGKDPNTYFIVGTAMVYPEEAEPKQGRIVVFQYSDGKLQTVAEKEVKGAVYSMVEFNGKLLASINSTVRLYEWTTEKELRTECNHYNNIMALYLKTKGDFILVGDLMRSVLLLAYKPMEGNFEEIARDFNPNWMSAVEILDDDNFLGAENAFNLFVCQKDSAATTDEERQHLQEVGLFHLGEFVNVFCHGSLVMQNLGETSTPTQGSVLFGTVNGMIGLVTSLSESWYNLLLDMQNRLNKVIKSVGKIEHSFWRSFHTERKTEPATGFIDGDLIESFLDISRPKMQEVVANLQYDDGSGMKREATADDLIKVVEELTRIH
Method in brief: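 A time delay of 70 μs preceded acquisition, limiting background fluorescence; the ratio of emission at 520 versus 490 nm gave the TR-FRET value.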

[4] = molecular target: T2, CDK2–cyclin A (Homo sapiens, UniProt P24941); experiment: Lanthascreen kinase binding assay, CDK2; conditions: for Lanthascreen signal, sheet CDK2: raw replicates; for IC50: Supplementary Table 2, read-out: Lanthascreen IC50 [nM] CDK2
T2 construct: purchased Thermo Fisher
Experimental: as §1

[5] = molecular target: T3, CDK9–cyclin T (Homo sapiens, UniProt P50750); experiment: Lanthascreen kinase binding assay, CDK9; conditions: for Lanthascreen TR-FRET signal (raw ratio), sheet CDK9: duplicates
T3 construct: purchased Thermo Fisher
T3 sequence (P50750 whole entry): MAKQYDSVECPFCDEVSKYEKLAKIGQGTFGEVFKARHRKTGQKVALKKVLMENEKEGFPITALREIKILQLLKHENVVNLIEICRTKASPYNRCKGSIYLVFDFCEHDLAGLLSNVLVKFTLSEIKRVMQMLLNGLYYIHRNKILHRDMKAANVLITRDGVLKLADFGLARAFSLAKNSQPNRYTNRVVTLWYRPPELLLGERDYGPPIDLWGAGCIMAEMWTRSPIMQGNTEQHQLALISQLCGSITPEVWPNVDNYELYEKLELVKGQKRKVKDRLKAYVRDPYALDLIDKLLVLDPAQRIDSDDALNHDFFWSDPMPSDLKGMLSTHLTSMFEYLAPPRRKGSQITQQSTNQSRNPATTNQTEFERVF
T3 sequence (O60563 whole entry partner): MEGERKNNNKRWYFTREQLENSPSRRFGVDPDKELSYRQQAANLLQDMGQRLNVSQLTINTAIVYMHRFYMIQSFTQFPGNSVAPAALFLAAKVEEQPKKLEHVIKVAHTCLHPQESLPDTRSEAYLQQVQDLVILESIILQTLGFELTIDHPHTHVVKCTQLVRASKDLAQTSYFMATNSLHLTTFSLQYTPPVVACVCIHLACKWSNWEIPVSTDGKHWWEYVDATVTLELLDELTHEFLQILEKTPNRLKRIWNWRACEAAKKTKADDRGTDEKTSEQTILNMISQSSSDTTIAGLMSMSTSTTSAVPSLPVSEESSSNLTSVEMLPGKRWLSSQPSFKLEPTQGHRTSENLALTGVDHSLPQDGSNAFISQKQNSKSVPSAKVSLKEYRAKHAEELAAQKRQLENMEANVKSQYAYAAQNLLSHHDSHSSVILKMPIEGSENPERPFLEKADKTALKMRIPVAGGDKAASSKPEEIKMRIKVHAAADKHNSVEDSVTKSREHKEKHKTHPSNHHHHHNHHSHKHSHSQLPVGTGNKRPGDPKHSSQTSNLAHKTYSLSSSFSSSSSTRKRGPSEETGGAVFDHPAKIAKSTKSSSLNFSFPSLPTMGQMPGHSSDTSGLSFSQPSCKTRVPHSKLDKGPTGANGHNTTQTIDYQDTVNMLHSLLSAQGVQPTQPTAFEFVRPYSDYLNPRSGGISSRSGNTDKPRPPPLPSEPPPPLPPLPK
Experimental: as §1

[6] = tested on: HEK293T cells; experiment: Drug sensitivity assay (CellTiter-Glo viability) with or without MLN4924 pretreatment; type: cell-based, human; conditions: Supplementary Table 2; for EC50: Homo sapiens, HEK-293T, HEK293T viability, 72 h, compound alone, read-out: Cellular assays EC50; for Toxicity rescue: MLN4924-mediated cytotoxicity rescue, 10 µM used where n.d.
Method in brief: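 Cas9-expressing HEK293T cells receive either vehicle or 100 nM MLN4924, then compounds 2 h afterwards. After three days, luminescence-based viability is measured and calculated relative to DMSO.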

[7] = in vitro complex formation, 50 nM CDK12–cyclin K, 100 nM DDB1, text and figures, read-out: TR-FRET EC50
[8] = sheet MOESM7, read-out: log TR-FRET EC50 (converted)
[9] = Supplementary Table 2, read-out: Lanthascreen IC50 [nM] CDK9

## CC(C)n1cnc2c(NCc3ccc(-c4ccccn4)cc3)nc(N3CCOCC3)nc21 [DS19]
[1]
  DC50: 0.062 µM
[2]; Supplementary Table 2, read-out: Lanthascreen IC50 [nM] CDK12
  IC50: 163 nM
[2]; compound 0.038147 nM, series r37
  Lanthascreen raw signal, sheet CDK12: 0.01386 and 0.01388
[2]; compound 0.152588 nM, series r37
  Lanthascreen raw signal, sheet CDK12: 0.01386 and 0.01359
[2]; compound 0.610352 nM, series r37
  Lanthascreen raw signal, sheet CDK12: 0.01429 and 0.01468
[2]; compound 9.76563 nM, series r37
  Lanthascreen raw signal, sheet CDK12: 0.01424 and 0.01408
[2]; compound 39.0625 nM, series r37
  Lanthascreen raw signal, sheet CDK12: 0.0128 and 0.01286
[2]; compound 156.25 nM, series r37
  Lanthascreen raw signal, sheet CDK12: 0.01155 and 0.01121
[2]; compound 625 nM, series r37
  Lanthascreen raw signal, sheet CDK12: 0.01099 and 0.009814
[2]; compound 2500 nM, series r37
  Lanthascreen raw signal, sheet CDK12: 0.009116 and 0.009896
[2]; compound 10000 nM, series r37
  Lanthascreen raw signal, sheet CDK12: 0.008961 and 0.008941
[3]; raw replicate titration data
  TR-FRET signal at compound concentration 0.468 nM: 0.2796 and 0.2825 and 0.2274 and 0.2285
  TR-FRET signal at compound concentration 2.16 nM: 0.4207 and 0.4231 and 0.3525 and 0.3569
  TR-FRET signal at compound concentration 3.6 nM: 0.7048 and 0.756 and 0.6232 and 0.6327
  TR-FRET signal at compound concentration 7.92001 nM: 1.442 and 1.475 and 1.209 and 1.266
  TR-FRET signal at compound concentration 15.84 nM: 2.559 and 2.574 and 2.155 and 2.284
  TR-FRET signal at compound concentration 30.96 nM: 3.476 and 3.44 and 3.283 and 3.355
  TR-FRET signal at compound concentration 62.6401 nM: 3.895 and 3.93 and 3.8348 and 3.842
  TR-FRET signal at compound concentration 125.28 nM: 4.03 and 4.166 and 4.089 and 4.0346
  TR-FRET signal at compound concentration 244.8 nM: 3.953 and 4.0607 and 4.092 and 4.114
  TR-FRET signal at compound concentration 993.601 nM: 4.102 and 4.235 and 4.304 and 4.258
  TR-FRET signal at compound concentration 2001.6 nM: 4.005 and 4.144 and 4.249 and 4.271
[3]; raw titration data
  TR-FRET signal at compound concentration 0.468 nM: 0.2796 and 0.2825 and 0.2274 and 0.2285
  TR-FRET signal at compound concentration 2.16 nM: 0.4207 and 0.4231 and 0.3525 and 0.3569
  TR-FRET signal at compound concentration 3.6 nM: 0.7048 and 0.756 and 0.6232 and 0.6327
  TR-FRET signal at compound concentration 7.92001 nM: 1.442 and 1.475 and 1.209 and 1.266
  TR-FRET signal at compound concentration 15.84 nM: 2.559 and 2.574 and 2.155 and 2.284
  TR-FRET signal at compound concentration 30.96 nM: 3.476 and 3.44 and 3.283 and 3.355
  TR-FRET signal at compound concentration 62.6401 nM: 3.895 and 3.93 and 3.8348 and 3.842
  TR-FRET signal at compound concentration 125.28 nM: 4.03 and 4.166 and 4.089 and 4.0346
  TR-FRET signal at compound concentration 244.8 nM: 3.953 and 4.0607 and 4.092 and 4.114
  TR-FRET signal at compound concentration 993.601 nM: 4.102 and 4.235 and 4.304 and 4.258
  TR-FRET signal at compound concentration 2001.6 nM: 4.005 and 4.144 and 4.249 and 4.271
[3]; [7]
  EC50: 0.014 ± 0.0003 µM
[3]; [8]
  EC50: 0.014 µM
[4]; Compound 0.038147 nM, experiment r36-r46
  Lanthascreen signal, sheet CDK2: 0.0135 and 0.01393
[4]; Compound 0.152588 nM, experiment r36-r46
  Lanthascreen signal, sheet CDK2: 0.0137 and 0.01436
[4]; Compound 0.610352 nM, experiment r36-r46
  Lanthascreen signal, sheet CDK2: 0.01422 and 0.01354
[4]; Compound 9.76563 nM, experiment r36-r46
  Lanthascreen signal, sheet CDK2: 0.01407 and 0.01385
[4]; Compound 39.0625 nM, experiment r36-r46
  Lanthascreen signal, sheet CDK2: 0.01288 and 0.01319
[4]; Compound 156.25 nM, experiment r36-r46
  Lanthascreen signal, sheet CDK2: 0.01128 and 0.01245
[4]; Compound 625 nM, experiment r36-r46
  Lanthascreen signal, sheet CDK2: 0.01025 and 0.01024
[4]; Compound 2500 nM, experiment r36-r46
  Lanthascreen signal, sheet CDK2: 0.009848 and 0.009236
[4]; Compound 10000 nM, experiment r36-r46
  Lanthascreen signal, sheet CDK2: 0.00863 and 0.008753
[4]
  IC50: 239 nM
[5]; [9]
  IC50: 143 nM
[5]; compound 0.038147 nM, third titration set (r25)
  Lanthascreen TR-FRET signal (raw ratio), sheet CDK9: 0.02142 and 0.0184
[5]; compound 0.152588 nM, third titration set (r25)
  Lanthascreen TR-FRET signal (raw ratio), sheet CDK9: 0.02078 and 0.0198
[5]; compound 0.610352 nM, third titration set (r25)
  Lanthascreen TR-FRET signal (raw ratio), sheet CDK9: 0.02132 and 0.01977
[5]; compound 9.76563 nM, third titration set (r25)
  Lanthascreen TR-FRET signal (raw ratio), sheet CDK9: 0.02157 and 0.01927
[5]; compound 39.0625 nM, third titration set (r25)
  Lanthascreen TR-FRET signal (raw ratio), sheet CDK9: 0.01848 and 0.01637
[5]; compound 156.25 nM, third titration set (r25)
  Lanthascreen TR-FRET signal (raw ratio), sheet CDK9: 0.01444 and 0.01311
[5]; compound 625 nM, third titration set (r25)
  Lanthascreen TR-FRET signal (raw ratio), sheet CDK9: 0.01104 and 0.009432
[5]; compound 2500 nM, third titration set (r25)
  Lanthascreen TR-FRET signal (raw ratio), sheet CDK9: 0.009751 and 0.009192
[5]; compound 10000 nM, third titration set (r25)
  Lanthascreen TR-FRET signal (raw ratio), sheet CDK9: 0.008375 and 0.006377
[6]
  EC50: 0.203 µM
  Toxicity rescue: 300%

## CC[C@H](CO)Nc1nc(NCc2nc3c(F)c(F)ccc3[nH]2)c2ncn(C(C)C)c2n1 [DS64]
[1]
  DC50: 0.062 µM
[2]; compound 1.02544 nM, series r1
  Lanthascreen raw signal, sheet CDK12: 0.01144 and 0.008554
[2]; compound 3.15521 nM, series r1
  Lanthascreen raw signal, sheet CDK12: 0.008537 and 0.009228
[2]; compound 9.46563 nM, series r1
  Lanthascreen raw signal, sheet CDK12: 0.008646 and 0.00887
[2]; compound 31.5521 nM, series r1
  Lanthascreen raw signal, sheet CDK12: 0.00802 and 0.006596
[2]; compound 99.3891 nM, series r1
  Lanthascreen raw signal, sheet CDK12: 0.007448 and 0.007338
[2]; compound 315.521 nM, series r1
  Lanthascreen raw signal, sheet CDK12: 0.006013 and 0.008259
[2]; compound 3155.21 nM, series r1
  Lanthascreen raw signal, sheet CDK12: 0.007185 and 0.006229
[2]; compound 10002 nM, series r1
  Lanthascreen raw signal, sheet CDK12: 0.005174 and 0.004623
[3]; raw replicate titration data
  TR-FRET signal at compound concentration 0.468 nM: 0.2748 and 0.2878
  TR-FRET signal at compound concentration 2.16 nM: 0.3281 and 0.3452
  TR-FRET signal at compound concentration 3.6 nM: 0.4287 and 0.4479
  TR-FRET signal at compound concentration 7.92001 nM: 0.6146 and 0.6538
  TR-FRET signal at compound concentration 15.84 nM: 0.9627 and 1.0618
  TR-FRET signal at compound concentration 30.96 nM: 1.485 and 1.709
  TR-FRET signal at compound concentration 62.6401 nM: 2.204 and 2.463
  TR-FRET signal at compound concentration 125.28 nM: 2.739 and 3.004
  TR-FRET signal at compound concentration 244.8 nM: 3.0364 and 3.323
  TR-FRET signal at compound concentration 993.601 nM: 3.365 and 3.564
  TR-FRET signal at compound concentration 2001.6 nM: 3.296 and 3.552
[3]; [7]
  EC50: 0.041 ± 0.002 µM
[3]; [8]
  EC50: 0.0409 µM
[3]; source data sheet correlations, read-out: TR-FRET EC50
  EC50: 0.0409 µM
[4]; Compound 1.02544 nM, experiment r1-r11
  Lanthascreen signal, sheet CDK2: 0.01032 and 0.009036
[4]; Compound 3.15521 nM, experiment r1-r11
  Lanthascreen signal, sheet CDK2: 0.009561 and 0.01039
[4]; Compound 9.46563 nM, experiment r1-r11
  Lanthascreen signal, sheet CDK2: 0.01132 and 0.01064
[4]; Compound 31.5521 nM, experiment r1-r11
  Lanthascreen signal, sheet CDK2: 0.009578 and 0.01231
[4]; Compound 99.3891 nM, experiment r1-r11
  Lanthascreen signal, sheet CDK2: 0.0112 and 0.01036
[4]; Compound 315.521 nM, experiment r1-r11
  Lanthascreen signal, sheet CDK2: 0.00859 and 0.007854
[4]; Compound 3155.21 nM, experiment r1-r11
  Lanthascreen signal, sheet CDK2: 0.006995 and 0.007302
[4]; Compound 10002 nM, experiment r1-r11
  Lanthascreen signal, sheet CDK2: 0.004999 and 0.005409
[4]
  IC50: 4960 nM
[5]; Lanthascreen, average, Extended Data Fig. 8, read-out: CDK9 IC50
  IC50: > 10000 nM
[5]; [9]
  IC50: > 10000 nM
[5]; compound 1.02544 nM, first titration set (r1)
  Lanthascreen TR-FRET signal (raw ratio), sheet CDK9: 0.01262 and 0.01798
[5]; compound 3.15521 nM, first titration set (r1)
  Lanthascreen TR-FRET signal (raw ratio), sheet CDK9: 0.01403 and 0.01513
[5]; compound 9.46563 nM, first titration set (r1)
  Lanthascreen TR-FRET signal (raw ratio), sheet CDK9: 0.01561 and 0.01591
[5]; compound 31.5521 nM, first titration set (r1)
  Lanthascreen TR-FRET signal (raw ratio), sheet CDK9: 0.01447 and 0.01334
[5]; compound 99.3891 nM, first titration set (r1)
  Lanthascreen TR-FRET signal (raw ratio), sheet CDK9: 0.01493 and 0.01478
[5]; compound 315.521 nM, first titration set (r1)
  Lanthascreen TR-FRET signal (raw ratio), sheet CDK9: 0.01351 and 0.01148
[5]; compound 3155.21 nM, first titration set (r1)
  Lanthascreen TR-FRET signal (raw ratio), sheet CDK9: 0.008801 and 0.0091
[5]; compound 10002 nM, first titration set (r1)
  Lanthascreen TR-FRET signal (raw ratio), sheet CDK9: 0.004226 and 0.004622
[6]
  EC50: 0.527 µM
  Toxicity rescue: 971%
